Values of other authors, collected in patent US20070015720A1, “Modulation of endogenous AICAR levels for the treatment of diabetes and obesity” (CytRx Corporation, priority 2005, published 2007).

Assays:
[1] = mice, murine pouch model of inflammation
[2] = low dose, psoriasis patients, day of dosing
[3] = tested on: obese Zucker (fa/fa) rats; details: long term treatment, high doses

| Compound | increase of AICAR-monophosphate in splenocytes [1] | urinary excretion of aminoimidazole carboxamide (AICA) [2] | fasting concentrations of glucose and insulin [3] | plasma triglyceride and free fatty acid levels [3] | systolic blood pressure [3] | adipocyte differentiation (adipocytes) | non-insulin stimulated glucose uptake (3T3L1 adipocytes) |
| --- | --- | --- | --- | --- | --- | --- | --- |
| O=C(O)c1cc(/N=N/c2ccc(S(=O)(=O)Nc3ccccn3)cc2)ccc1O [sulfasalazine] | three-fold | – | – | – | – | – | – |
| CN(Cc1cnc2nc(N)nc(N)c2n1)c1ccc(C(=O)N[C@@H](CCC(=O)O)C(=O)O)cc1 [methotrexate] | three-fold | statistically significant increase | – | – | – | – | – |
| NC(=O)c1ncn([C@@H]2O[C@H](CO)[C@@H](O)[C@H]2O)c1N [AICAR, 5-aminoimidazole-4-carboxamide ribonucleoside] | – | – | decrease | reduce | decrease | inhibits adipocyte differentiation at an early stage | increase |
